Structures can show the parent of a compound that is named as a salt.
test system: Jurkat T cells; type: cell-based, human; settings: IL-2 production level in treated group compared to control group; 48 hours treatment, then anti-CD3/anti-CD28 12 hours
Source text: Two preliminary screens were designed and performed.
To construct “blood chemical compound library for cell-based screening purposes, components such as antibodies that are difficult to distinguish due to a wide variety, and some supplements that only function at a whole organism level including fish oils and herbs were excluded. Physiological ranges of serum levels of individual blood chemicals are available in the human metabolome database (https://hmdb.ca/) and applied in the experimental design. For first screen 1a, Jurkat T cells were treated with blood chemical library for 48 hours and then activated with 2.5 μg/mL anti-CD3 and 0.5 μg/mL anti-CD28 antibodies for another 12 hours, followed by measurement of IL-2 level in medium supernatant using ELISA kit (Biolegend). For first screen 1b, 1×10^5 PD-1^+ Jurkat T cells were co-cultured with 2×10^4 H596 (PD-L1^+) cells in a well of 96-well plate for 60 hours, and then activated with 2.5 μg/mL anti-CD3 and 0.5 μg/mL anti-CD28 antibodies for another 12 hours, followed by measurement of IL-2 level in medium supernatant using ELISA kit. Please also refer to Resources Table and Table 1-2 for more details.

Compound | Relative changed percentage (%)
Gelatin | 59.8%
O=C(O)C(=O)O [OXALIC ACID SODIUM SALT] | −16.88%
ALPHA 1 ANTITRYPSIN, HUMAN PLASMA | −10.6%
CCCCCCCC/C=C\CCCCCCCCCCCC(=O)O [Erucic acid] | 10.71%
C=C1CC[C@H](O)C/C1=C/C=C1\CCC[C@]2(C)[C@@H]([C@H](C)CCCC(C)C)CC[C@@H]12 [CHOLECALCIFEROL CRYSTALLINE, CHOLECALCIFEROL] | 25.45%
Cl.NCCc1c[nH]c2ccc(O)cc12 [-HYDROXYTRYPTAMINE HYDROCHLORIDE] | −22.39%
Cc1ncc(CO)c(CO)c1O.Cl [Pyridoxine Hydrochloride] | −17.45%
O=S(=O)([O-])[O-].[Cu+2] [Copper sulfate] | −26.32%
[Na+].[Na+].[O]=[Mo](=[O])([O-])[O-] [Sodium Molybdate] | 22.1968%
CC(=O)C(=O)O [PYRUVIC ACID] | 10.42%
C[C@@H](O)[C@H](N)C(=O)O [L-Threonine] | −6.543%
N[C@@H](Cc1cc(I)c(Oc2ccc(O)c(I)c2)c(I)c1)C(=O)[O-].[Na+] [′,5-TRIIODO-L-THYRONINE SODIUM SALT] | −13.42%
NCC(=O)O [Glycine] | −8.966%
PECTIN | −4.914%
CC(C)C[C@H](N)C(=O)O [L-Leucine] | −7.16%
androsterone [AN[…],/androsterone] | 15.91%
CHONDROITIN SULFATE, A SODIUM SALT | 9.195%

Compound | Relative changed percentage (%)
Nc1ncnc2c1ncn2[C@@H]1O[C@H](CO)[C@@H](O)[C@H]1O [ADENOSINE FREE BASE] | 3.704%
CC1=CCCC(C)(C)C1/C=C/C(C)=C/C=C/C(C)=C/C=C/C=C(C)/C=C/C=C(C)/C=C/C1=C(C)CCCC1(C)C (centres unmarked) [A-CAROTENE] | 6.561%
NC(N)=O [UREA] | −0.3112%
O=C([O-])[C@@H](O)[C@@H](O)[C@H](O)[C@@H](O)C(=O)[O-].[Ca+2] [Calcium d-glucarate] | −12.14%
CC[C@H](C)[C@H](N)C(=O)O [L-Isoleucine] | −8.642%
2-DEOXY-L-RIBOSE/Deoxycytidine | 36.7%
CC(C)CCC[C@@H](C)[C@H]1CC[C@H]2[C@@H]3CC=C4C[C@@H](O)CC[C@]4(C)[C@H]3CC[C@]12C [CHOLESTEROL] | −31.89%
O=C(O)CCC(=O)O [SUCCINIC ACID] | 4.14%
Magnesium citrate | 3.782%
C[N+](C)(C)[C@@H](Cc1c[nH]c(=S)[nH]1)C(=O)[O-] [L-(+)-ERGOTHIONEINE INNER SALT] | −10.39%
O=c1[nH]c(=O)c2[nH]c(=O)[nH]c2[nH]1 [URIC ACID] | −6.651%
CC1=C[C@H](O)CC(C)(C)C1/C=C/C(C)=C/C=C/C(C)=C/C=C/C=C(C)/C=C/C=C(C)/C=C/C1=C(C)CCCC1(C)C (some centres unmarked) [A-CRYPTOXANTHIN] | 29.1%
CCCCCCCCCCCCCCCCCC(=O)O [Stearic Acid] | 38.77%
CCCCCCCC/C=C\CCCCCCCCCCCCCC(=O)O [Nervonic acid] | 37.68%
N[C@@H](Cc1ccc(O)cc1)C(=O)O [L-Tyrosine] | −13.45%
[F-].[Na+] [Sodium Fluoride] | −43.81%
Nc1nc2c(ncn2[C@@H]2O[C@@H]3COP(=O)([O-])O[C@H]3[C@H]2O)c(=O)[nH]1.[Na+] [GUANOSINE 3′:5′-CYCLIC MONOPIIOSPIIATE SODIUM] | 8.266%

same assay, conditions: IL-2 production level in treated group compared to control group; 48 hours treatment, then anti-CD3/anti-CD28 12 hours; Hydrochloride

Compound | Relative changed percentage (%)
Cl.N[C@H]1C(O)O[C@H](CO)[C@@H](O)[C@@H]1O (some centres unmarked) [Glucosamine Hydrochloride] | −6.979%
